# Measurements published in paper PMC6940745 (International Journal of Molecular Sciences, 2019).
# pEC50: −log10 of the molar value. Where a SMILES comes first, the peptide text is derived from it. [ ]: non-standard residue; d: D form. The star is where a group is joined. Bz = O=C(c1ccccc1)*; NPr2 = CCCN(CCC)*
# Experiments:
# MT2R = biological target: T1, MT2R (Homo sapiens, UniProt P49286); experiment: MT2R activation, GTPγS scintillation proximity assay on CHO-K1 membranes; assay type: biochemical; settings: eight concentrations, 0.01 to 100,000 nM
# T1 construct: host or cells: CHO-K1 (membrane preparations)
# T1 sequence (P49286 whole entry): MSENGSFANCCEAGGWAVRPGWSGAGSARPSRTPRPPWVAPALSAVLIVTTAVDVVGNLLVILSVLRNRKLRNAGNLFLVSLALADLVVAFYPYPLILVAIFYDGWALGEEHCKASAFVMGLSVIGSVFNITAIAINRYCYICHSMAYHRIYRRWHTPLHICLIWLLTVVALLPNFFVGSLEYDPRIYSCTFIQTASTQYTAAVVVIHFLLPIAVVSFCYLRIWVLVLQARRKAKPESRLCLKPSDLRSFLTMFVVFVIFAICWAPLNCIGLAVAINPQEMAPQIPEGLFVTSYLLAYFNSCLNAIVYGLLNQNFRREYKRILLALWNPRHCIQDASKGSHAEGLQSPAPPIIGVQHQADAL
# Experimental: Melatonin (MT1R and MT2R) and opioid receptor (OP1R, OP2R, and OP3R, corresponding to human delta, kappa, and mu opioid receptors) activation assays were performed by means of GTPγS scintillation proximity assays. For agonist testing, membrane preparations from CHO-K1 cells expressing each receptor (EuroscreenFast, Gosselies, Belgium) were mixed with guanosine diphosphate (GDP) (v/v). In parallel, GTPγ[^35S] (PerkinElmer, NEG030X, 0.1 nM final assay concentration) was mixed with PVT-WGA beads (Perkin Elmer, RPNQ001, 0.5 mg/well final assay density) (v/v) just before starting the reaction. The following reagents were then successively added in the wells of an Optiplate (Perkin Elmer): A total of 50 µL of test or reference ligand diluted in assay buffer, 10 µL of assay buffer (20 mM HEPES pH 7.4; 100–200 mM NaCl, 10 µg/mL saponin, MgCl2 at optimized concentration for the specific receptor, 0%–0.1% BSA), 20 µL of the membranes: GDP mix, and 20 µL of the GTPγ[^35S]: Beads mix. The plates were covered with a top seal, mixed on an orbital shaker for 2 min, and then incubated for 1 h at room temperature. Then the plates were centrifuged for 10 min at 2000 rpm, incubated at room temperature for 1 h, and counted for 1 min/well with a PerkinElmer TopCount™ reader.
# [1] = system: B16 murine melanoma cells; experiment: Total melanin synthesis in mouse melanoma cells; assay type: cell-based; settings: 72 h incubation
# Experimental: B16 murine melanoma cells, which are highly responsive towards stimulation with alpha-melanocyte stimulating hormone (alpha-MSH), were grown in Dulbecco’s modified eagle medium (DMEM) with 1 g/L glucose supplemented with 3 g/L glucose, 2 mM L-glutamine, 50 U/mL Penicillin, 50 µg/mL Streptomycin, and 10% fetal calf serum. They were kept at 37 °C in a 5% CO2 atmosphere. Cells were grown for 24 h and then medium was replaced with medium containing the test or reference (NDP-alpha-MSH) compounds. After 72 h, total (intracellular and extracellular) melanin content was determined by absorbance spectroscopy at 405 nm. The results were quantified against a melanin standard curve.
# Figure 1 Total melanin synthesis in mouse melanoma cells stimulated with MC1R-agonist peptides. MC1R-agonist peptides were incubated at various concentrations together with the near confluent mouse melanoma cell line B16F10. NDP-alpha-MSH at 100 nM was used as the reference and set to 100% melanin (red line). Error bars represent standard error of the mean of three experiments.
# TYR = TYR protein expression in human skin ex vivo (immunohistochemistry); assay type: cell-based; settings: topical 30, 100 and 200 µM, six days; p = 0.06
# Experimental: Following declaration of Helsinki principles (DoH-Oct2013, World Medical Association, Ferney-Voltaire, France), human skin samples were obtained from elective plastic surgery after informed consent was obtained. For the two experiments shown in Figure 2, Figure 3 and Figure 4, we had one person with an individual topology angle (ITA°) of 18, and one person with an ITA° of 39 [69]. The skin samples were cut in pieces of 8 × 3 mm and cultured up to day 6. Skin samples were cultured in an air–liquid interface in a perforated ring of stainless steel in contact with culture medium (modified Williams’ E medium). The culture medium was renewed every three days (i.e., day 0–3). Compounds were added daily in DMSO at 4 µL volume. At day 6, the skin samples were fixed in formalin, embedded in paraplast, and cut at the microtome for histochemical staining and consequent image analysis. Six skin biopsies were used for each single treatment.
# Twelve skin sections from the ex vivo melanogenesis experiment above were immunoassayed with the selected antibodies (TYR, Thermo Scientific #MS-800-P0 (Thermo Scientific, Waltham, MA, USA); TYRP-1, Covance #SIG-38150 (Covance Inc., Princeton, NJ, USA), MITF, Abcam #ab80651 (Abcam plc, Cambridge, UK). The number of positive cells within the epidermis was counted and the value was normalized upon the length of the basal lamina, thus obtaining a score. […]
# Nrf2 (phospho S40) = experiment: Nrf2 serine 40 phosphorylation in skin explants after UVA-irradiation; assay type: cell-based, human; settings: p < 0.05 vs UVA-irradiated vehicle control
# Experimental: On an abdominoplasty coming from a person with Fitzpatrick phototype II, skin explants of an average diameter of 11 mm were prepared after obtaining written informed consent. The explants were kept in culture medium at 37 °C in a humid, 5% CO2 atmosphere. The peptide was applied topically and spread using a small spatula on day 0 (D0), D1, D2, and D3. […] On day 3, explants were irradiated with UVA (13.5 J/cm^2 equal to 3 minimal erythemal doses (MED)) using a Vilbert Lourmat solar simulator RMX 3W. For the UV irradiation, the explants were transferred into 1 mL of HBSS (Hank’s buffered salt solution) medium. The non-irradiated batches were kept in 1 mL of HBSS medium. After the UV exposure, all the explants were put in fresh Bio-EC’s explant medium (BEM medium). The products were applied on the explants 3 h before and just after UVA irradiation. Twenty-four hours after UVA irradiation, the tissues were harvested and processed for histology. After fixation for 24 h in buffered formalin, the samples were dehydrated and impregnated in paraffin using a Leica TP 1010 dehydration automat. The samples were embedded using a Leica EG 1160 embedding station. Sections 5 µm thick were made using a Leica RM 2125 Minot-type microtome, and the sections were mounted on Superfrost® histological glass slides (Thermo Fisher Scientific, Waltham, MA, USA). […]
compound,measurement,setting,value
CCCN(CCC)C(=O)[C@@H](Cc1c[nH]c2ccccc12)NC(=O)[C@H](CCCNC(=N)N)NC(=O)[C@@H](Cc1ccccc1)NC(=O)[C@H](Cc1c[nH]cn1)NC(=O)CNC(=O)c1ccccc1 [Peptide 4] (Bz-GH[dF]R[dW]-NPr2),pEC50,MT2R,< 4.00
same,Concentration at which maximal melanin synthesis activity comparable to 100 nM NDP-alpha-MSH is reached,[1],around 12.3 nM
same,Maximal induction of TYR protein expression vs vehicle,TYR,44%
same,Induction of Nrf2 phosphorylation on serine 40,Nrf2 (phospho S40),up to 161%
